# Source: patent publication US20210187012A1, “ANTI-COAGULANT AGENT, ANTICOAGULATION DEVICE, BLOOD COAGULATION CURING METHOD, VASCULAR ENDOTHELIAL CELL FUNCTION IMPROVING METHOD, AND METABOLISM IMPROVING METHOD” (H2BANK CO., LTD., priority 2018, published 2021)
# Tested on: membrane potential of mitochondria
# Settings: in the presence of molecular hydrogen
compound,measurement,value
[HH] [hydrogen],signal of TMRE (membrane potential) reduced,about 10%
